Experimental data taken from patent publication US20090191636A1, “Method of Producing Transgenic Graminaceous Cells and Plants” (priority 2006, published 2009).

Key:
[1] = test system: wheat embryos derived from mature dried grain of the cultivar Bobwhite; test: Effect of D-amino acids on regeneration of wheat from embryos of mature dried grain (Bobwhite); format: cell-based, Triticum aestivum; conditions: for proportion (%) of explants regenerating after 3 weeks, Average / proportion (%) of explants regenerating after 3 weeks, Experiment number 1 / proportion (%) of explants regenerating after 3 weeks, Experiment number 2 / proportion (%) of explants regenerating after 3 weeks, Experiment number 3: n = 20
Method: (§1) A range of concentrations of the D-amino acids D-serine and D-alanine were tested for effects on wheat regeneration and germination from embryos derived from mature dried grain of the cultivar Bobwhite.

[2] = test system: wheat mature dried grain of the cultivar Bobwhite; test: Effect of D-amino acids on germination of wheat mature dried grain (Bobwhite); format: in vivo, Triticum aestivum; conditions: n = 15
Method: as §1

[3] = test system: wheat embryos derived from mature dried grain of the cultivar Ventura; test: Effect of D-amino acids on regeneration of wheat from embryos of mature dried grain (Ventura); format: cell-based; conditions: n = 20
[4] = test system: wheat mature dried grain of the cultivar Ventura; test: Effect of D-amino acids on germination of wheat mature dried grain (Ventura); format: in vivo; conditions: n = 15
Method: [Worded in the source for another variant; this variant is reported under the same test.] as §1

C[C@@H](N)C(=O)O [D-alanine]
proportion (%) of explants regenerating after 3 weeks, Average ([1]; 0.5 mM): 20%
proportion (%) of explants regenerating after 3 weeks, Experiment number 1 ([1]; 0.5 mM): 30%
proportion (%) of explants regenerating after 3 weeks, Experiment number 2 ([1]; 0.5 mM): 30%
proportion (%) of explants regenerating after 3 weeks, Experiment number 3 ([1]; 0.5 mM): 0%
proportion (%) of explants regenerating after 3 weeks, Average ([1]; 1 mM): 20%
proportion (%) of explants regenerating after 3 weeks, Experiment number 1 ([1]; 1 mM): 35%
proportion (%) of explants regenerating after 3 weeks, Experiment number 2 ([1]; 1 mM): 21%
proportion (%) of explants regenerating after 3 weeks, Experiment number 3 ([1]; 1 mM): 5%
proportion (%) of explants regenerating after 3 weeks, Average ([1]; 3 mM): 15%
proportion (%) of explants regenerating after 3 weeks, Experiment number 1 ([1]; 3 mM): 20%
proportion (%) of explants regenerating after 3 weeks, Experiment number 2 ([1]; 3 mM): 25%
proportion (%) of explants regenerating after 3 weeks, Experiment number 3 ([1]; 3 mM): 0%
proportion (%) of explants regenerating after 3 weeks, Average ([1]; 5 mM): 3%
proportion (%) of explants regenerating after 3 weeks, Experiment number 1 ([1]; 5 mM): 5%
proportion (%) of explants regenerating after 3 weeks, Experiment number 2 ([1]; 5 mM): 5%
proportion (%) of explants regenerating after 3 weeks, Experiment number 3 ([1]; 5 mM): 0%
proportion (%) of explants regenerating after 3 weeks, Average ([1]; 10 mM): 0%
proportion (%) of explants regenerating after 3 weeks, Experiment number 1 ([1]; 10 mM): 0%
proportion (%) of explants regenerating after 3 weeks, Experiment number 2 ([1]; 10 mM): 0%
proportion (%) of explants regenerating after 3 weeks, Experiment number 3 ([1]; 10 mM): 0%
levels that reduced the regeneration and germination of wheat plants ([1]; regeneration and germination (Tables 4 and 5)): > 5 mM
proportion (%) of explants germinated after 1 week, Average ([2]; 0.5 mM): 77%
proportion (%) of explants germinated after 1 week, Experiment Number 1 ([2]; 0.5 mM): 55%
proportion (%) of explants germinated after 1 week, Experiment Number 2 ([2]; 0.5 mM): 75%
proportion (%) of explants germinated after 1 week, Experiment Number 3 ([2]; 0.5 mM): 100%
proportion (%) of explants germinated after 1 week, Average ([2]; 1 mM): 77%
proportion (%) of explants germinated after 1 week, Experiment Number 1 ([2]; 1 mM): 70%
proportion (%) of explants germinated after 1 week, Experiment Number 2 ([2]; 1 mM): 80%
proportion (%) of explants germinated after 1 week, Experiment Number 3 ([2]; 1 mM): 80%
proportion (%) of explants germinated after 1 week, Average ([2]; 3 mM): 73%
proportion (%) of explants germinated after 1 week, Experiment Number 1 ([2]; 3 mM): 70%
proportion (%) of explants germinated after 1 week, Experiment Number 2 ([2]; 3 mM): 70%
proportion (%) of explants germinated after 1 week, Experiment Number 3 ([2]; 3 mM): 80%
proportion (%) of explants germinated after 1 week, Average ([2]; 5 mM): 62%
proportion (%) of explants germinated after 1 week, Experiment Number 1 ([2]; 5 mM): 50%
proportion (%) of explants germinated after 1 week, Experiment Number 2 ([2]; 5 mM): 85%
proportion (%) of explants germinated after 1 week, Experiment Number 3 ([2]; 5 mM): 50%
proportion (%) of explants germinated after 1 week, Average ([2]; 10 mM): 28%
proportion (%) of explants germinated after 1 week, Experiment Number 1 ([2]; 10 mM): 10%
proportion (%) of explants germinated after 1 week, Experiment Number 2 ([2]; 10 mM): 35%
proportion (%) of explants germinated after 1 week, Experiment Number 3 ([2]; 10 mM): 40%
proportion (%) of explants regenerating after 3 weeks, Average ([3]; 0.5 mM): 8%
proportion (%) of explants regenerating after 3 weeks, Experiment number 1 ([3]; 0.5 mM): 10%
proportion (%) of explants regenerating after 3 weeks, Experiment number 2 ([3]; 0.5 mM): 10%
proportion (%) of explants regenerating after 3 weeks, Experiment number 3 ([3]; 0.5 mM): 5%
proportion (%) of explants regenerating after 3 weeks, Average ([3]; 1 mM): 5%
proportion (%) of explants regenerating after 3 weeks, Experiment number 1 ([3]; 1 mM): 0%
proportion (%) of explants regenerating after 3 weeks, Experiment number 2 ([3]; 1 mM): 10%
proportion (%) of explants regenerating after 3 weeks, Experiment number 3 ([3]; 1 mM): 5%
proportion (%) of explants regenerating after 3 weeks, Average ([3]; 3 mM): 7%
proportion (%) of explants regenerating after 3 weeks, Experiment number 1 ([3]; 3 mM): 10%
proportion (%) of explants regenerating after 3 weeks, Experiment number 2 ([3]; 3 mM): 10%
proportion (%) of explants regenerating after 3 weeks, Experiment number 3 ([3]; 3 mM): 0%
proportion (%) of explants regenerating after 3 weeks, Average ([3]; 5 mM): 3%
proportion (%) of explants regenerating after 3 weeks, Experiment number 1 ([3]; 5 mM): 5%
proportion (%) of explants regenerating after 3 weeks, Experiment number 2 ([3]; 5 mM): 5%
proportion (%) of explants regenerating after 3 weeks, Experiment number 3 ([3]; 5 mM): 0%
proportion (%) of explants regenerating after 3 weeks, Average ([3]; 10 mM): 0%
proportion (%) of explants regenerating after 3 weeks, Experiment number 1 ([3]; 10 mM): 0%
proportion (%) of explants regenerating after 3 weeks, Experiment number 2 ([3]; 10 mM): 0%
proportion (%) of explants regenerating after 3 weeks, Experiment number 3 ([3]; 10 mM): 0%
proportion (%) of explants regenerating after 3 weeks, Average ([3]; 20 mM): 0%
proportion (%) of explants regenerating after 3 weeks, Experiment number 1 ([3]; 20 mM): 0%
proportion (%) of explants regenerating after 3 weeks, Experiment number 2 ([3]; 20 mM): 0%
proportion (%) of explants regenerating after 3 weeks, Experiment number 3 ([3]; 20 mM): 0%
germination: proportion (%) of explants regenerating after 1 week, Average ([4]; 0.5 mM): 73%
germination: proportion (%) of explants regenerating after 1 week, Experiment number 1 ([4]; 0.5 mM): 65%
germination: proportion (%) of explants regenerating after 1 week, Experiment number 2 ([4]; 0.5 mM): 65%
germination: proportion (%) of explants regenerating after 1 week, Experiment number 3 ([4]; 0.5 mM): 90%
germination: proportion (%) of explants regenerating after 1 week, Average ([4]; 1 mM): 75%
germination: proportion (%) of explants regenerating after 1 week, Experiment number 1 ([4]; 1 mM): 75%
germination: proportion (%) of explants regenerating after 1 week, Experiment number 2 ([4]; 1 mM): 75%
germination: proportion (%) of explants regenerating after 1 week, Experiment number 3 ([4]; 1 mM): 75%
germination: proportion (%) of explants regenerating after 1 week, Average ([4]; 3 mM): 75%
germination: proportion (%) of explants regenerating after 1 week, Experiment number 1 ([4]; 3 mM): 80%
germination: proportion (%) of explants regenerating after 1 week, Experiment number 2 ([4]; 3 mM): 65%
germination: proportion (%) of explants regenerating after 1 week, Experiment number 3 ([4]; 3 mM): 80%
germination: proportion (%) of explants regenerating after 1 week, Average ([4]; 5 mM): 67%
germination: proportion (%) of explants regenerating after 1 week, Experiment number 1 ([4]; 5 mM): 70%
germination: proportion (%) of explants regenerating after 1 week, Experiment number 2 ([4]; 5 mM): 55%
germination: proportion (%) of explants regenerating after 1 week, Experiment number 3 ([4]; 5 mM): 75%
germination: proportion (%) of explants regenerating after 1 week, Average ([4]; 10 mM): 47%
germination: proportion (%) of explants regenerating after 1 week, Experiment number 1 ([4]; 10 mM): 65%
germination: proportion (%) of explants regenerating after 1 week, Experiment number 2 ([4]; 10 mM): 30%
germination: proportion (%) of explants regenerating after 1 week, Experiment number 3 ([4]; 10 mM): 45%
germination: proportion (%) of explants regenerating after 1 week, Average ([4]; 20 mM): 5%
germination: proportion (%) of explants regenerating after 1 week, Experiment number 1 ([4]; 20 mM): 5%
germination: proportion (%) of explants regenerating after 1 week, Experiment number 2 ([4]; 20 mM): 25%
germination: proportion (%) of explants regenerating after 1 week, Experiment number 3 ([4]; 20 mM): 40%
